This is an account of results in US10526345B2, “Compounds as GPR119 agonists” (Mankind Pharma Ltd., priority 2016, dated 2020).

The assay addresses T1, hGPR119 (Homo sapiens, UniProt Q8TDV5).
T1 construct: expressed in transfected cells; host or cells: CHO
T1 sequence (Q8TDV5 1-335): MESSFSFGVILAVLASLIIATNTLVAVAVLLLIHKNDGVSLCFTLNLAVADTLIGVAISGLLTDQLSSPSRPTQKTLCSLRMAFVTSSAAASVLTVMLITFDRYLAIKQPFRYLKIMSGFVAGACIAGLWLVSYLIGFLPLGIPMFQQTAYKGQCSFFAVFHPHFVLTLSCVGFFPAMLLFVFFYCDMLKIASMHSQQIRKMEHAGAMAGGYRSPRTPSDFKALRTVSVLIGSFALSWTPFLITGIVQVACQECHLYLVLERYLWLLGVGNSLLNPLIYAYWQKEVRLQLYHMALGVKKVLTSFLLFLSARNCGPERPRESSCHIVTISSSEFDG
The experiment in a line: In vitro cyclic AMP assay (Cisbio dynamic 2 HTRF kit) in CHO-hGPR119 cells. Type of assay: cell-based. Conditions: cAMP; for activation at 1 µM: 1 h, compound at 1 μM, 60 min, read-out: Induction (% induction at 1 μM). Here is the method:
cAMP measurements were done using Cisbio dynamic 2 HTRF kit according to the manufacturer's protocol. Briefly, CHO-hGPR119 cells were plated at a cell density of 5000 cells/well/5 μl into a white small volume 384 well plate. The final concentrations of IBMX and DMSO used were 1 mM and 0.5% respectively. Cells were treated with various concentrations of the test compound for 60 min at room temperature. Cells were lysed by buffer containing Anti-cAMP antibody and d2-cAMP reagents and incubated for 1 hour at room temperature. HTRF was measured at 337 nm excitation and emission wavelengths of 665 nm and 620 nm on a microplate reader (Flurostar, BMG Labtech). Graphpad prism software was utilized for EC50 determinations.

On to `CC(C)c1noc(N2CCC([C@@H](C)Oc3nc4ccc(-c5ccc(S(C)(=O)=O)cc5)nc4s3)CC2)n1` [Compound 1032, (R)-3-isopropyl-5-(4-(1-((5-(4-(methylsulfonyl)phenyl)thiazolo[5,4-b]pyridin-2-yl)oxy)ethyl)piperidin-1-yl)-1,2,4-oxadiazole], for which the activation at 1 µM turned out to be 13%.

Take `CC(C)OC(=O)N1CC=C(CCOc2nc3ccc(-c4ccc(S(C)(=O)=O)cc4)nc3s2)CC1` [Compound 1034, isopropyl 4-(2-((5-(4-(methylsulfonyl)phenyl)thiazolo[5,4-b]pyridin-2-yl)oxy)ethyl)-5,6-dihydropyridine-1(2H)-carboxylate]: the activation at 1 µM was determined as 0.3%.

On to `CC(C)c1noc(N2CC=C(CCOc3nc4ccc(-c5ccc(S(C)(=O)=O)cc5)nc4s3)CC2)n1` [Compound 1035, 3-isopropyl-5-(4-(2-((5-(4-(methylsulfonyl)phenyl)thiazolo[5,4-b]pyridin-2-yl)oxy)ethyl)-5,6-dihydropyridin-1(2H)-yl)-1,2,4-oxadiazole], for which the activation at 1 µM amounted to 2%.

Turning to `COCC(Oc1nc2ccc(-c3ccc(S(C)(=O)=O)cc3)nc2s1)C1CCN(c2nc(C(C)C)no2)CC1` (stereo not drawn) [Compound 1036, 3-isopropyl-5-(4-(2-methoxy-1-((5-(4-(methylsulfonyl)phenyl)thiazolo[5,4-b]pyridin-2-yl)oxy)ethyl)piperidin-1-yl)-1,2,4-oxadiazole], the activation at 1 µM was 47%.

Take `Cc1cc(-c2ccc(S(C)(=O)=O)cc2)nc2sc(OC(C)C3CCN(c4nc(C(C)C)no4)CC3)nc12` (stereo not drawn) [Compound 1037, 3-isopropyl-5-(4-(1-((7-methyl-5-(4-(methylsulfonyl)phenyl)thiazolo[5,4-b]pyridin-2-yl)oxy)ethyl)piperidin-1-yl)-1,2,4-oxadiazole]: the activation at 1 µM came to 18%.

Consider `Cc1cc(-c2ccc(S(C)(=O)=O)cc2)nc2sc(OCC3CCN(c4nc(C(C)C)no4)CC3)nc12` [Compound 1038, 3-isopropyl-5-(4-(((7-methyl-5-(4-(methylsulfonyl)phenyl)thiazolo[5,4-b]pyridin-2-yl)oxy)methyl)piperidin-1-yl)-1,2,4-oxadiazole], for which the activation at 1 µM is 11%.

Regarding `Cc1cc2nc(OC(C)C3CCN(c4nc(C(C)C)no4)CC3)sc2nc1-c1ccc(S(C)(=O)=O)cc1` (stereo not drawn) [Compound 1039, 3-isopropyl-5-(4-(1-((6-methyl-5-(4-(methylsulfonyl)phenyl)thiazolo[5,4-b]pyridin-2-yl)oxy)ethyl)piperidin-1-yl)-1,2,4-oxadiazole], the activation at 1 µM came out at 20%.

As for `CC(C)c1noc(N2CCC(C(Oc3nc4ccc(-c5ccc(S(C)(=O)=O)cc5)nc4s3)C3CC3)CC2)n1` (stereo not drawn) [Compound 1040, 5-(4-(cyclopropyl((5-(4-(methylsulfonyl)phenyl)thiazolo[5,4-b]pyridin-2-yl)oxy)methyl)piperidin-1-yl)-3-isopropyl-1,2,4-oxadiazole], the activation at 1 µM worked out at 48%.

As for `CC(CC1CCN(c2nc(C(C)C)no2)CC1)Oc1nc2ccc(-c3ccc(S(C)(=O)=O)cc3)nc2s1` (stereo not drawn) [Compound 1043, 3-isopropyl-5-(4-(2-((5-(4-(methylsulfonyl)phenyl)thiazolo[5,4-b]pyridin-2-yl)oxy)propyl)piperidin-1-yl)-1,2,4-oxadiazole], the activation at 1 µM turned out to be 4%.

Take `CC(C=C1CCN(c2nc(C(C)C)no2)CC1)Oc1nc2ccc(-c3ccc(S(C)(=O)=O)cc3)nc2s1` (stereo not drawn) [Compound 1044, 3-isopropyl-5-(4-(2-((5-(4-(methylsulfonyl)phenyl)thiazolo[5,4-b]pyridin-2-yl)oxy)propylidene)piperidin-1-yl)-1,2,4-oxadiazole]: the activation at 1 µM was 3%.

Take `CC(C)c1noc(N2CCC([C@H](C)Oc3nc4ccc(-c5ccc(C(=O)N(C)C)cc5)nc4s3)CC2)n1` [Compound 1045, (S)-4-(2-(1-(1-(3-isopropyl-1,2,4-oxadiazol-5-yl)piperidin-4-yl)ethoxy)thiazolo[5,4-b]pyridin-5-yl)-N,N-dimethylbenzamide]: the activation at 1 µM came out at 31%.

Turning to `CC(C)c1noc(N2CCC(C(C)Oc3nc4ccc(-c5ccc(C(=O)N(C)C)cc5F)nc4s3)CC2)n1` (stereo not drawn) [Compound 1046, 3-fluoro-4-(2-(1-(1-(3-isopropyl-1,2,4-oxadiazol-5-yl)piperidin-4-yl)ethoxy)thiazolo[5,4-]pyridin-5-yl)-N,N-dimethylbenzamide], the activation at 1 µM stood at 1%.

Regarding `CC(Oc1nc2ccc(-c3ccc(S(C)(=O)=O)cc3)nc2s1)C1CCN(c2nc(C3CC3)no2)CC1` (stereo not drawn) [Compound 1048, 3-cyclopropyl-5-(4-(1-((5-(4-(methylsulfonyl)phenyl)thiazolo[5,4-b]pyridin-2-yl)oxy)ethyl)piperidin-1-yl)-1,2,4-oxadiazole], the activation at 1 µM was determined as 57%.

Take `CC(C)c1noc(N2CCC(C(C)Oc3nc4ccc(-c5ccc(C(=O)NC6CC6)cc5)nc4s3)CC2)n1` (stereo not drawn) [Compound 1049, N-cyclopropyl-4-(2-(1-(1-(3-isopropyl-1,2,4-oxadiazol-5-yl)piperidin-4-yl)ethoxy)thiazolo[5,4-b]pyridin-5-yl)benzamide]: the activation at 1 µM is 14%.

`COCCNC(=O)c1ccc(-c2ccc3nc(OC(C)C4CCN(c5nc(C(C)C)no5)CC4)sc3n2)cc1` (stereo not drawn) [Compound 1050, 4-(2-(1-(1-(3-isopropyl-1,2,4-oxadiazol-5-yl)piperidin-4-yl)ethoxy)thiaozlo[5,4-b]pyridin-5-yl)-N-(2-methoxyethyl)benzamide]: the activation at 1 µM came to 16%.

Regarding `CC(C)c1noc(N2CCC(C(C)Oc3nc4ccc(-c5ccc(C(=O)N6CCOCC6)cc5)nc4s3)CC2)n1` (stereo not drawn) [Compound 1051, (4-(2-(1-(1-(3-isopropyl-1,2,4-oxadiazol-5-yl)piperidin-4-yl)ethoxy)thiazolo[5,4-b]pyridin-5-yl)phenyl)(morpholino)methanone], the activation at 1 µM is 24%.

As to `CC(C)c1noc(N2CCC(C(C)Oc3nc4ccc(-c5ccc(C(=O)N(C)C6CC6)cc5)nc4s3)CC2)n1` (stereo not drawn) [Compound 1052, N-cyclopropyl-4-(2-(1-(1-(3-isopropyl-1,2,4-oxadiazol-5-yl)piperidin-4-yl)ethoxy)thiazolo[5,4-b]pyridin-5-yl)-N-methylbenzamide], the activation at 1 µM was determined as 13%.

Regarding `CCCc1cnc(N2CCC(C(C)Oc3nc4ccc(-c5ccc(S(C)(=O)=O)cc5)nc4s3)CC2)nc1` (stereo not drawn) [Compound 1053, 5-(4-(methyslulfonyl)phenyl)-2-(1-(1-(5-propylpyrimidin-2-yl)piperidin-4-yl)ethoxy)thiazolo[5,4-b]pyridine], the activation at 1 µM turned out to be 73% and the half-maximal effective concentration (EC50) was in the range of 0.05 to 0.1 µM.

Regarding `CCc1cnc(N2CCC(C(C)Oc3nc4ccc(-c5ccc(S(C)(=O)=O)cc5)nc4s3)CC2)nc1` (stereo not drawn) [Compound 1055, 2-(1-(1-(5-ethylpyrimidin-2-yl)piperidin-4-yl)ethoxy)-5-(4-(methylsulfonyl)phenyl)thiazolo[5,4-b]pyridine], the activation at 1 µM turned out to be 76%.

Regarding `CC(C)OC(=O)N1CCC(C(C)Oc2nc3ccc(-c4ccc(S(C)(=O)=O)cc4)nc3s2)CC1` (stereo not drawn) [Compound 1056, isopropyl 4-(1-((5-(4-(methylsulfonyl)phenyl)thiazolo[5,4-b]pyridin-2-yl)oxy)ethyl)piperidine-1-carboxylate], the activation at 1 µM came out at 51%.

Turning to `CC(C)c1nc(N2CCC(C(C)Oc3nc4ccc(-c5ccc(S(C)(=O)=O)cc5)nc4s3)CC2)no1` (stereo not drawn) [Compound 1058, 5-isopropyl-3-(4-(1-((5-(4-(methylsulfonyl)phenyl)thiazolo[5,4-b]pyridin-2-yl)oxy)ethyl)piperidin-1-yl)-1,2,4-oxadiazole], the activation at 1 µM amounted to 48%.

As to `CC(C)c1noc(N2CCC(Oc3nc4ccc(-c5ccc(S(C)(=O)=O)cc5)nc4s3)C(F)C2)n1` (stereo not drawn) [Compound 1060, 5-(3-fluoro-4-((5-(4-(methylsulfonyl)phenyl)thiazolo[5,4-b]pyridin-2-yl)oxy)piperidin-1-yl)-3-isopropyl-1,2,4-oxadiazole], the activation at 1 µM turned out to be 39%.

As for `CNS(=O)(=O)c1ccc(-c2ccc3nc(OC(C)C4CCN(c5nc(C(C)C)no5)CC4)sc3n2)cc1` (stereo not drawn) [Compound 1061, 4-(2-(1-(1-(3-isopropyl-1,2,4-oxadiazol-5-yl)piperidin-4-yl)ethoxy)thiazolo[5,4-b]pyridin-5-yl)-N-methylbenzenesulfonamide], the activation at 1 µM was 48%.

Turning to `CC(C)c1noc(N2CCC(C(C)Oc3nc4ccc(-c5ccc(S(=O)(=O)C6CC6)cc5)nc4s3)CC2)n1` (stereo not drawn) [Compound 1063, 5-(4-(1-((5-(4-(cyclopropylsulfonyl)phenyl)thiazolo[5,4-b]pyridin-2-yl)oxy)ethyl)piperidin-1-yl)-3-isopropyl-1,2,4-oxadiazole], the activation at 1 µM came out at 58%.

As for `CC(C)c1noc(N2CCC(C(C)Oc3nc4ccc(-c5ccc(C#N)cc5)nc4s3)CC2)n1` (stereo not drawn) [Compound 1065, 4-(2-(1-(1-(3-isopropyl-1,2,4-oxadiazol-5-yl)piperidin-4-yl)ethoxy)thiazolo[5,4-b]pyridin-5-yl)benzonitrile], the activation at 1 µM stood at 60%.

`COCCNS(=O)(=O)c1ccc(-c2ccc3nc(OC(C)C4CCN(c5nc(C(C)C)no5)CC4)sc3n2)cc1` (stereo not drawn) [Compound 1066, 4-(2-(1-(1-(3-isopropyl-1,2,4-oxadiazol-5-yl)piperidin-4-yl)ethoxy)thiazolo[5,4-b]pyridin-5-yl)-N-(2-methoxyethyl)benzenesulfonamide]: the activation at 1 µM turned out to be 30%.
